Measured values taken from patent US20160279079A1, “COMPOSITIONS AND METHODS FOR TREATING BONE DISEASES” (INDIANA UNIVERSITY RESEARCH AND TECHNOLOGY CORPORATION, priority 2013, published 2016).

Legend:
Type in all cases: cell-based, mouse
NFATc1 [1] = assay: Quantitative real-time PCR, NFATc1 mRNA in RAW264.7 cells
Method: (§1) METHOD EXAMPLE. Quantitative real-time PCR. Total RNA was extracted using an RNeasy Plus mini kit (Qiagen, Germantown, Md., USA). Reverse transcription was conducted with high capacity cDNA reverse transcription kits (Applied Biosystems, Carlsbad, Calif., USA), and quantitative real-time PCR was performed using ABI 7500 with Power SYBR green PCR master mix kits (Applied Biosystems). We evaluated mRNA levels of ATF4, Osteocalcin (OCN), NFATcl, c-Fos, tartrate-resistant acid phosphatase (TRAP), and osteoclast-associated receptor (OSCAR) with the PCR primers listed in Table 1. GAPDH was used for internal control. The relative mRNA abundance for the selected genes with respect to the level of GAPDH mRNA was expressed as a ratio of Streated/Scontrol, where Streated=mRNA level for the cells treated with chemical agents, and Scontrol=mRNA level for control cells.
(§2) METHOD EXAMPLE. Partial suppression of mRNA levels of NFATcl, c-Fos, TRAP, and OSCAR by salubrinal. […] On day 2, for instance, the RANKL-driven increase was 9.4±0.5 fold (NFATcl), 1.9±0.1 fold (c-fos), 165±4.2 fold (TRAP), and 467±22 fold (OSCAR). The reduction by 20 μM salubrinal was 46% (NFATcl), 32% (c-fos), 35% (TRAP), and 21% (OSCAR) (FIG. 5A).
(§3) METHOD EXAMPLE. Reduction of RANKL-induced NFATcl, c-Fos, TRAP, and OSCAR by guanabenz. […] The normalized level of “1” was defined as the level for the cells that were not treated with RANKL without administration of guanabenz.

[2] = test system: osteoclast-associated receptor (OSCAR); assay: Quantitative real-time PCR, OSCAR mRNA in RAW264.7 cells
Method: as §1, §2, §3

NFATc1 [3] = assay: Western immunoblotting, NFATc1 expression in RAW264.7 cells; conditions: for expression of NFATc1: absence of RANKL administration
Method: METHOD EXAMPLE. Downregulation of NFATcl in RAW264.7 cells by salubrinal. NFATcl is a transcription factor critical for activating osteoclastogenesis. […] The RANKL-induced expression of NFATcl was reduced by administration of 5-20 μM salubrinal on both days, and the effect of salubrinal was dose dependent (FIG. 4).
as §3
(§4) METHOD EXAMPLE. Western Immunoblotting. Cells were lysed in a radioimmunoprecipitation assay (RIPA) buffer containing protease inhibitors (Santa Cruz Biotechnology, Santa Cruz, Calif., USA) and phosphatase inhibitors (Calbiochem, Billerica, Mass., USA). Isolated proteins were fractionated using 10-15% SDS gels and electro-transferred to Immobilon-P membranes (Millipore, Billerica, Mass., USA). The membrane was incubated for 1 h with primary antibodies followed by 45 min incubation with goat anti-rabbit or anti-mouse IgG conjugated with horseradish peroxidase (Cell Signaling, Danvers, Mass., USA). We used antibodies against ATF4, NFATcl (Santa Cruz), p-eIF2α (Thermo Scientific, Waltham, Mass., USA), eIF2α, caspase 3, cleaved caspase 3, p38 and p-p38 mitogen activated protein kinase (MAPK), extracellular signal-regulated kinase (ERK) and p-ERK, nuclear factor kappa B (NFκB) p65 and p-NFκB p65 (Cell Signaling), and β-actin (Sigma). Protein levels were assayed using a SuperSignal west femto maximum sensitivity substrate (Thermo Scientific), and signal intensities were quantified with a luminescent image analyzer (LAS-3000, Fuji Film, Tokyo, Japan).
METHOD EXAMPLE. Temporal profile of p-eIF2α and NFATcl. […] Note that the normalized level of “1” in FIG. 6C was defined as the level for the cells that were not treated with RANKL without administration of guanabenz.

p-eIF2α = assay: Western immunoblotting, p-eIF2α in RAW264.7 cells; conditions: with RANKL
Description: as §3, §4
METHOD EXAMPLE. […]

NFATc1 [4] = assay: NFATc1 expression after RNA interference for eIF2α in RAW264.7 cells; conditions: for reduction of NFATc1: 20 μM
Method: as §4
(§5) METHOD EXAMPLE. Knockdown of ATF4 and eIF2α by siRNA. Cells were treated with siRNA specific to ATF4 and eIF2α (Life Technologies). Selected target sequences for knockdown of ATF4 and eIF2α were: ATF4, 5′-GCU GCU UAC AUU ACU CUA A-3′; and eIF2α, 5′-CGG UCA AAA UUC GAG CAG A-3′. As a nonspecific control, a negative siRNA (Silencer Select #1, Life Technologies) was used. Cells were transiently transfected with siRNA for ATF4, eIF2α or control in Opti-MEM I medium with Lipofectamine RNAiMAX (Life Technologies). Six hours later, the medium was replaced by regular culture medium. The efficiency of silencing was assessed with immunoblotting or quantitative PCR 48 h after transfection.
METHOD EXAMPLE. Reduction in salubrinal/guanabenz-driven suppression of NFATcl expression by RNA interference for eTF2α. To evaluate the effects of eIF2α on the expression level of NFATcl, RNA interference specific for eIF2α together with a non-specific control (NC) was used (FIG. 10). […] However, the expression of NFATcl was reduced only by 20% in the cells transfected with eIF2α siRNA.

Osteocalcin (OCN) = assay: Quantitative real-time PCR, osteocalcin mRNA in MC3T3 E1-14 cells; conditions: for increase of the level of osteocalcin mRNA: 5 μM salubrinal
Method: as §1, §5
METHOD EXAMPLE. ATF4-mediated elevation of osteocalcin mRNA in MC3T3 E1-14 cells. Salubrinal is an inhibitor of de-phosphorylation of eIF2α. […] Furthermore, the level of osteocalcin mRNA was increased 3.3±0.5 fold (24 h) and 3.3±0.3 fold (32 h) (FIG. 2B). […] Non-clonal MC3T3 E1 cells also presented elevation of p-eIF2α and ATF4, together with an increase in the mRNA levels of ATF4 and osteocalcin (Supplementary FIG. S2).

[5] = 20 μM salubrinal, day 2 after RANKL
[6] = cells transfected with the control siRNA
[7] = 20 μM guanabenz, 2 days after RANKL

SMILES: O=C(/C=C/c1ccccc1)NC(NC(=S)Nc1cccc2cccnc12)C(Cl)(Cl)Cl (stereo not shown) [salubrinal]
- reduction of NFATc1 mRNA level (NFATc1 [1]; [5]): 46%
- NFATc1 mRNA level (NFATc1 [1]; 0.1-1 μM salubrinal, with RANKL, except on day 4): did not contribute to significant reduction
- reduction of OSCAR mRNA level [2, 5]: 21%
- OSCAR mRNA level ([2]; 0.1-1 μM salubrinal, with RANKL, day 2 and day 4): did not contribute to significant reduction
- reduction of the level of NFATc1 (NFATc1 [3]; 20 μM salubrinal, 8 h, with RANKL): 48%
- reduction of the level of NFATc1 (NFATc1 [3]; 20 μM salubrinal, 24 h, with RANKL): 44%
- level of NFATc1 (NFATc1 [3]; 20 μM salubrinal, early period (2-4 h), with RANKL): did not alter
- RANKL-induced expression of NFATc1 (NFATc1 [3]; 5-20 μM salubrinal, day 2 and day 4, dose dependent): reduced
- expression of NFATc1 (NFATc1 [3]): did not significantly alter
- level of p-eIF2α (p-eIF2α; 20 μM salubrinal, early period (2-4 h)): increased the level of p-eIF2α
- reduction of NFATc1 (NFATc1 [4]; cells transfected with eIF2α siRNA): 20%
- reduction of NFATc1 (NFATc1 [4]; [6]): 56%
- increase of the level of osteocalcin mRNA (Osteocalcin (OCN); 24 h): 3.3±0.5 fold
- increase of the level of osteocalcin mRNA (Osteocalcin (OCN); 32 h): 3.3±0.3 fold
- salubrinal-driven elevation of the osteocalcin mRNA level (Osteocalcin (OCN); ATF4 expression reduced by RNA interference): suppressed

SMILES: N=C(N)N/N=C/c1c(Cl)cccc1Cl [guanabenz]
- NFATc1 mRNA level (NFATc1 [1]; [7]): reduced
- OSCAR mRNA level [2, 7]: reduced
- OSCAR mRNA level ([2]; 5 and 10 μM guanabenz, 2 days after RANKL): effective in reducing
- temporal expression profile of NFATc1 (NFATc1 [3]; 20 μM guanabenz, with RANKL): partially suppressed in 8 h
- expression of NFATc1 (NFATc1 [3]): did not significantly alter
- induction of NFATc1 by RANKL (NFATc1 [3]; guanabenz dose response, 2 days after RANKL): suppressed by guanabenz in a dose dependent manner
- temporal expression profile of p-eIF2α (p-eIF2α; 20 μM guanabenz): upregulatcd in 2 h
- suppressive effect on NFATc1 level (NFATc1 [4]; 20 μM guanabenz, transfection of eIF2α siRNA): abolished the suppressive effect
- reduction of NFATc1 (NFATc1 [4]; [6]): 43%
- mRNA level of osteocalcin (Osteocalcin (OCN); guanabenz dose response): elevated the mRNA level of osteocalcin in a dose dependent manner
